Assay results as given in patent publication US9861625B2, “Methods and compositions for treating cancer through inhibition of PI3K” (Duke University, priority 2014, dated 2018).
Like-named read-outs stand apart in the source and are kept apart here.

Legend:
Assay in all cases: MTT cell viability assay
Assay type in all cases: cell-based
BJAB = settings: Homo sapiens
Description: (§1) A total of 60 cell lines representative of different cancer types were obtained from the ATCC and grown and maintained in accordance with the provided guidelines. The cell lines represented the following distinct histologies: mantle cell lymphoma (5 lines: JVM13, Rec1, Mino, JVM2, Jeko); germinal center B-cell derived (“GCB”) DLBCL (19 lines: Farage, BJAB, Ly1, Ly2, Ly7, Ly8, Ly19, HBL2, HT, Karpas422, Pfeiffer, RCK8, RL, Sci-1, Ski, SUDHL4, SUDHL7, Toledo, WSU-NHL); primary mediastinal B-cell lymphoma (“PMBL”) (3 lines: K1106, MEDB1, U2940); Burkitt lymphoma (11 lines: Daudi, CA46, EB1, EB2, EB3, Jijoye, Raji, Ramos, Namwala, BL2, BL41); Hodgkin lymphoma (3 lines: RMPI6666, L1236, L428); activated B-cell derived (“ABC”) DLBCL (6 lines: Ly3, HBL1, TMD8, Ly10, Riva, U2932); multiple myeloma (6 lines: U266, SKMM1, RPMI8226, KMS12, IM9, H929); acute myelogenous leukemia (“AML”) (2 lines: U937, KG1); acute lymphoblastic leukemia (“ALL”) (2 lines: Reh, SR); and T-cell lymphoma (3 lines: Molt4, RPMI8402, Jurkat). The cell lines were tested within six months after resuscitation.
(§2) The 3-(4,5-dimethylthiazol-2-yl)-2,5-diphenyltetrazolium bromide (MTT) cell viability assay was used to determine cell viability in response to drug treatment. Five replicates per concentration tested were carried out in serial dilutions with a total of ten concentrations with a 50% reduction in drug concentration per dilution for each plate. A total of 15 μl of MTT reagent was added to each drug-treated well and incubated for three hours in 37° C. Detergent was added to each drug-treated well and incubated overnight at room temperature without exposure to light. Absorbance was measured at 570 nm using a plate reader from Tecan Group. The IC50 concentration was determined using the publicly available ED50 plus v1.0 software program.

EB1 = settings: EB1, Burkitt Lymphoma, RPMI 10% FBS
Description: as §1, §2

Reh = settings: Homo sapiens, ALL, RPMI 10% FBS
Description: as §1, §2

H929 = settings: Homo sapiens, NCI-H929; H929, Multiple Myeloma, RPMI 10% FBS
Description: as §1, §2

KG1 = settings: Homo sapiens, KG-1; KG1, AML, IMDM 20% FBS
Description: as §1, §2

TMD8 = settings: Homo sapiens; TMD8, ABC DLBCL, MEM-α 10% FBS
Description: as §1, §2

Jijoye = settings: Burkitt Lymphoma, RPMI 10% FBS
Description: as §1, §2

Molt 4 = settings: Homo sapiens; Molt 4, T-cell, RPMI 10% FBS
Description: as §1, §2

Jeko = settings: MantleCellLymphoma, RPMI 10% FBS
Description: as §1, §2

EB3 = settings: Homo sapiens, EB-3; EB3, Burkitt Lymphoma, RPMI 10% FBS
Description: as §1, §2

EB2 = settings: Homo sapiens; EB2, Burkitt Lymphoma, RPMI 10% FBS
Description: as §1, §2

LY3 = settings: LY3, ABC DLBCL, OCI
Description: as §1, §2

Farage = settings: GCB DLBCL, RPMI 10% FBS
Description: as §1, §2

LY19 = settings: LY19, GCB DLBCL, OCI
Description: as §1, §2

Mino = settings: Homo sapiens, MantleCellLymphoma, RPMI 10% FBS
Description: as §1, §2

L1236 = settings: L-1236; L1236, Hodgkin Lymphoma, RPMI 10% FBS
Description: as §1, §2

U937 = settings: Homo sapiens, U-937; U937, AML, RPMI 10% FBS
Description: as §1, §2

CA46 = settings: Homo sapiens; CA46, Burkitt Lymphoma, RPMI 10% FBS
Description: as §1, §2

K1106 = settings: K1106, PMBL, RPMI 15% FBS
Description: as §1, §2

Sci-1 = settings: Sci-1, GCB DLBCL, RPMI 10% FBS
Description: as §1, §2

SUDHL4 = settings: Homo sapiens, SU-DHL-4; SUDHL4, GCB DLBCL, RPMI 15% FBS
Description: as §1, §2

Daudi = settings: Homo sapiens, Burkitt Lymphoma, RPMI 10% FBS
Description: as §1, §2

IM9 = settings: Homo sapiens, IM-9; IM9, Multiple Myeloma, RPMI 10% FBS
Description: as §1, §2

Pfeiffer = settings: Homo sapiens, GCB DLBCL, RPMI 10% FBS
Description: as §1, §2

RCK8 = settings: Homo sapiens; RCK8, GCB DLBCL, RPMI 15% FBS
Description: as §1, §2

MEDB1 = settings: MEDB1, PMBL, RPMI 10% FBS
Description: as §1, §2

Rec1 = settings: Homo sapiens; Rec1, MantleCellLymphoma, RPMI 10% FBS
Description: as §1, §2

Karpas422 = settings: Homo sapiens, KARPAS-422; Karpas422, GCB DLBCL, RPMI 10% FBS
Description: as §1, §2

Raji = settings: Homo sapiens, Burkitt Lymphoma, RPMI 10% FBS
Description: as §1, §2

[1] = BJAB, GCB DLBCL, RPMI 10% FBS, read-out: IC50

Structure (SMILES)	IC50 (BJAB; [1])	IC50 (EB1)	IC50 (Reh)	IC50 (H929)	IC50 (KG1)	IC50 (TMD8)	IC50 (Jijoye)	IC50 (Molt 4)	IC50 (Jeko)	IC50 (EB3)	IC50 (EB2)	IC50 (LY3)	IC50 (Farage)	IC50 (LY19)	IC50 (Mino)	IC50 (L1236)	IC50 (U937)	IC50 (CA46)	IC50 (K1106)	IC50 (Sci-1)	also measured
Cn1c(=O)n(-c2ccc(C(C)(C)C#N)cc2)c2c3cc(-c4cnc5ccccc5c4)ccc3ncc21 [BEZ235]	26.9 nM	22.6 nM	484 nM	113 nM	79.9 nM	118 nM	140 nM	168 nM	51 nM	36.8 nM	70.2 nM	80 nM	509 nM	224 nM	60.8 nM	60 nM	15 nM	28.4 nM	536 nM	35 nM	IC50 (BJAB; BJAB cells, read-out: IC50 concentration): 26.9 nM; IC50 (BJAB; BJAB cells, read-out: observed IC50): 26.9 nM; IC50 (SUDHL4): 60.8 nM; IC50 (Daudi): 46.7 nM; IC50 (IM9): 4500 nM; IC50 (Pfeiffer): 17.1 nM; IC50 (RCK8): 20 nM; IC50 (MEDB1): 1830 nM; IC50 (Rec1): 82.3 nM; IC50 (Karpas422): 22 nM; IC50 (Raji): 300 nM
Nc1cc(C(F)(F)F)c(-c2cc(N3CCOCC3)nc(N3CCOCC3)n2)cn1 [BKM120]	1470 nM	1070 nM	1020 nM	1200 nM	724 nM	764 nM	2740 nM	1110 nM	752 nM	655 nM	1070 nM	893 nM	752 nM	1890 nM	460 nM	1120 nM	895 nM	729 nM	1870 nM	985 nM	IC50 (SUDHL4): 1110 nM; IC50 (Daudi): 1300 nM; IC50 (IM9): 575 nM; IC50 (Pfeiffer): 1040 nM; IC50 (RCK8): 3260 nM; IC50 (MEDB1): 7790 nM; IC50 (Rec1): 776 nM; IC50 (Karpas422): 2080 nM; IC50 (Raji): 2310 nM
COc1ccc(-c2ccc3ncc4c(c3c2)n(-c2ccc(N3CCNCC3)c(C(F)(F)F)c2)c(=O)n4C)cn1 [BGT226]	8.5 nM	71.6 nM	13.4 nM	3.6 nM	25.1 nM	101 nM	13.1 nM	8 nM	16.6 nM	44.5 nM	199 nM	20.4 nM	162 nM	33.3 nM	10.5 nM	12.4 nM	11.2 nM	27.6 nM	18.2 nM	24.5 nM	IC50 (SUDHL4): 51.3 nM; IC50 (Daudi): 86.4 nM; IC50 (IM9): 201 nM; IC50 (Pfeiffer): 20.8 nM; IC50 (RCK8): 21.8 nM; IC50 (MEDB1): 49.7 nM; IC50 (Rec1): 35.9 nM; IC50 (Karpas422): 85.3 nM; IC50 (Raji): 79.8 nM
